The values that follow come from patent US20250340579A1 (priority 2022, published 2025).

The conditions of data set [1]: in vivo; cited from earlier work.
The conditions of data set [2]: pH 7.4.

Regarding `C/C1=C2/[N-][C@H]([C@H](CC(N)=O)[C@@]2(C)CCC(=O)NC[C@@H](C)O)[C@]2(C)N=C(/C(C)=C3N=C(/C=C4N=C1[C@@H](CCC(N)=O)C\4(C)C)[C@@H](CCC(N)=O)[C@]\3(C)CC(N)=O)[C@@H](CCC(N)=O)[C@]2(C)CC(N)=O.[Co+3]` [Cobinamide], in data set [1], the “effectiveness post-cyanide exposure versus pre-exposure” value is on record as “as effective when administered up to 5 minutes post-cyanide exposure as when given pre-exposure”.
Consider bis-aminotetrazole-cobinamide, for which, in data set [2], the solution stability entry is “stable at room temperature when protected from bright light”.
